Assays:
[1] = tested on: eggs of Tetranychus urticae; assay: Effect on hatching of eggs of Tetranychus urticae, leaf disc method; type: in vivo; conditions: 5 ppm; for Hatching rate (%): 5 days after insecticide delivery
Procedure, shortened: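 This leaf disc test measured inhibition of Tetranychus urticae egg hatching. Eggs laid on Vicia faba discs were counted microscopically, and the discs were soaked for 10 seconds in compound at 5 ppm, with clear water as control. They were incubated under controlled temperature and humidity with strong indirect light, avoiding condensate. Hatched eggs, leaf damage and developmental abnormalities were recorded five days after delivery.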

Magnaporthe grisea = type: cell-based; conditions: 100 ppm; for Average antifungal rate (%) / Antifungal rate of Magnaporthe grisea (%), Replicate 1 / Antifungal rate of Magnaporthe grisea (%), Replicate 2 / Antifungal rate of Magnaporthe grisea (%), Replicate 3: 96-well plate; for Average antifungal rate (%): average of 3 replicates
eggs of Panonychus citri = assay: Effect on hatching of eggs of Panonychus citri, leaf disc method; type: in vivo; conditions: 1 ppm; for Hatching rate (%), Replicate 1 / Hatching rate (%), Replicate 2 / Hatching rate (%), Replicate 3 / Number of hatched larvae 5 days after insecticide delivery, Replicate 1 / Number of hatched larvae 5 days after insecticide delivery, Replicate 2 / Number of hatched larvae 5 days after insecticide delivery, Replicate 3: Panonychus citri eggs; for Hatching rate (%), Replicate 1 / Hatching rate (%), Replicate 2 / Hatching rate (%), Replicate 3: 5 days after delivery; for Number of hatched larvae 5 days after insecticide delivery, Replicate 1 / Number of hatched larvae 5 days after insecticide delivery, Replicate 2 / Number of hatched larvae 5 days after insecticide delivery, Replicate 3: leaf disc
eggs of Thrips = assay: Effect on hatching of eggs of Thrips, leaf disc method; type: in vivo; conditions: 100 ppm; for Hatching rate (%): 5 days after insecticide delivery
Procedure, shortened: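 Egg-bearing Vicia faba leaf discs (diameter 2.0 cm, wetted filter paper beneath) were counted microscopically for baseline eggs. They were then soaked for 10 seconds in water or in test agent at 100 ppm. After moist incubation in lidded dishes, with controlled temperature and humidity and adequate indirect light, hatched larvae were counted five days post-delivery to judge hatching inhibition.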

[2] = tested on: eggs of Spodoptera litura; assay: Effect on hatching of eggs of Spodoptera litura, egg piece soaking; type: in vivo; conditions: 500 ppm; for Hatching rate (%), Replicate 1 / Hatching rate (%), Replicate 2 / Hatching rate (%), Replicate 3 / Number of unhatched larvae 4 days after insecticide delivery, Replicate 1 / Number of unhatched larvae 4 days after insecticide delivery, Replicate 2 / Number of unhatched larvae 4 days after insecticide delivery, Replicate 3: Spodoptera litura eggs; for Hatching rate (%), Replicate 1 / Hatching rate (%), Replicate 2 / Hatching rate (%), Replicate 3: 4 days after delivery; for Number of unhatched larvae 4 days after insecticide delivery, Replicate 1 / Number of unhatched larvae 4 days after insecticide delivery, Replicate 2 / Number of unhatched larvae 4 days after insecticide delivery, Replicate 3: soaked 10 minutes
Procedure, shortened: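 Egg pieces of about 60 eggs were soaked 10 min in test agent at 500 ppm, blotted, then held singly at 24±1 °C, 80±10% RH, 12:12 L:D. Hatched and unhatched eggs were counted on day 4 to give hatching rate and control effect; 3 replicates.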

[3] = Replicate 1, listed as 1′-(R, S)
[4] = Replicate 2, listed as 1′-(R, S)
[5] = Replicate 3, listed as 1′-(R, S)
[6] = Replicate 1, listed as 1′-(S, R)
[7] = Replicate 2, listed as 1′-(S, R)
[8] = Replicate 3, listed as 1′-(S, R)
[9] = Replicate 1, listed as 1′-(S, S)
[10] = Replicate 2, listed as 1′-(S, S)
[11] = Replicate 3, listed as 1′-(S, S)

SMILES: CC(COc1ccc(Cl)cc1Cl)OS(=O)OCCF [1′-(R,S)]
- inhibitory activity on the hatching of eggs of Tetranychus urticae (in words) [1]: strong inhibitory activities
- Hatching rate (%) [1, 3]: 0.00%
- Hatching rate (%) [1, 4]: 0.00%
- Number of hatched larvae 5 days after insecticide delivery [1, 3]: 0
- Number of hatched larvae 5 days after insecticide delivery [1, 4]: 0
- inhibitory rate against Magnaporthe grisea (in words) (Magnaporthe grisea): strong inhibitory rate
- Average antifungal rate (%) (Magnaporthe grisea): 100.09%
- Antifungal rate of Magnaporthe grisea (%), Replicate 1 (Magnaporthe grisea): 100.26%
- Antifungal rate of Magnaporthe grisea (%), Replicate 2 (Magnaporthe grisea): 99.74%
- Antifungal rate of Magnaporthe grisea (%), Replicate 3 (Magnaporthe grisea): 100.26%
- inhibitory effect on the hatching of eggs of Panonychus citri (in words) (eggs of Panonychus citri): good inhibitory effects
- Hatching rate (%), Replicate 1 (eggs of Panonychus citri; listed as 1′-(R, S)): 0.00%
- Hatching rate (%), Replicate 2 (eggs of Panonychus citri; listed as 1′-(R, S)): 0.00%
- Hatching rate (%), Replicate 3 (eggs of Panonychus citri; listed as 1′-(R, S)): 0.00%
- Number of hatched larvae 5 days after insecticide delivery, Replicate 1 (eggs of Panonychus citri; listed as 1′-(R, S)): 0
- Number of hatched larvae 5 days after insecticide delivery, Replicate 2 (eggs of Panonychus citri; listed as 1′-(R, S)): 0
- Number of hatched larvae 5 days after insecticide delivery, Replicate 3 (eggs of Panonychus citri; listed as 1′-(R, S)): 0
- inhibitory activity on the hatching of eggs of Thrips (in words) (eggs of Thrips): strong inhibitory activities
- Hatching rate (%) (eggs of Thrips; [3]): 0.00%
- Hatching rate (%) (eggs of Thrips; [4]): 0.00%
- Hatching rate (%) (eggs of Thrips; [5]): 0.00%
- Number of hatched larvae 5 days after insecticide delivery (eggs of Thrips; [3]): 0
- Number of hatched larvae 5 days after insecticide delivery (eggs of Thrips; [4]): 0
- Number of hatched larvae 5 days after insecticide delivery (eggs of Thrips; [5]): 0
- inhibitory activity on the hatching of eggs of Spodoptera litura (in words) [2]: good inhibitory activities
- Hatching rate (%), Replicate 1 ([2]; listed as 1′-(R, S)): 28.33%
- Hatching rate (%), Replicate 2 ([2]; listed as 1′-(R, S)): 25.00%
- Hatching rate (%), Replicate 3 ([2]; listed as 1′-(R, S)): 20.34%
- Number of unhatched larvae 4 days after insecticide delivery, Replicate 1 ([2]; listed as 1′-(R, S)): 43
- Number of unhatched larvae 4 days after insecticide delivery, Replicate 2 ([2]; listed as 1′-(R, S)): 48
- Number of unhatched larvae 4 days after insecticide delivery, Replicate 3 ([2]; listed as 1′-(R, S)): 47

SMILES: CC(COc1ccc(Cl)cc1Cl)OS(=O)OCCF [1′-(S,R)]
- inhibitory activity on the hatching of eggs of Tetranychus urticae (in words) [1]: strong inhibitory activities
- Hatching rate (%) [1, 6]: 0.00%
- Hatching rate (%) [1, 7]: 0.00%
- Number of hatched larvae 5 days after insecticide delivery [1, 6]: 0
- Number of hatched larvae 5 days after insecticide delivery [1, 7]: 0
- inhibitory rate against Magnaporthe grisea (in words) (Magnaporthe grisea): strong inhibitory rate
- Average antifungal rate (%) (Magnaporthe grisea): 99.22%
- Antifungal rate of Magnaporthe grisea (%), Replicate 1 (Magnaporthe grisea): 95.80%
- Antifungal rate of Magnaporthe grisea (%), Replicate 2 (Magnaporthe grisea): 102.01%
- Antifungal rate of Magnaporthe grisea (%), Replicate 3 (Magnaporthe grisea): 99.85%
- inhibitory effect on the hatching of eggs of Panonychus citri (in words) (eggs of Panonychus citri): good inhibitory effects
- Hatching rate (%), Replicate 1 (eggs of Panonychus citri; listed as 1′-(S, R)): 0.00%
- Hatching rate (%), Replicate 2 (eggs of Panonychus citri; listed as 1′-(S, R)): 0.00%
- Hatching rate (%), Replicate 3 (eggs of Panonychus citri; listed as 1′-(S, R)): 0.00%
- Number of hatched larvae 5 days after insecticide delivery, Replicate 1 (eggs of Panonychus citri; listed as 1′-(S, R)): 0
- Number of hatched larvae 5 days after insecticide delivery, Replicate 2 (eggs of Panonychus citri; listed as 1′-(S, R)): 0
- Number of hatched larvae 5 days after insecticide delivery, Replicate 3 (eggs of Panonychus citri; listed as 1′-(S, R)): 0
- inhibitory activity on the hatching of eggs of Thrips (in words) (eggs of Thrips): strong inhibitory activities
- Hatching rate (%) (eggs of Thrips; [6]): 0.00%
- Hatching rate (%) (eggs of Thrips; [7]): 0.00%
- Hatching rate (%) (eggs of Thrips; [8]): 0.00%
- Number of hatched larvae 5 days after insecticide delivery (eggs of Thrips; [6]): 0
- Number of hatched larvae 5 days after insecticide delivery (eggs of Thrips; [7]): 0
- Number of hatched larvae 5 days after insecticide delivery (eggs of Thrips; [8]): 0
- inhibitory activity on the hatching of eggs of Spodoptera litura (in words) [2]: good inhibitory activities
- Hatching rate (%), Replicate 1 ([2]; listed as 1′-(S, R)): 27.87%
- Hatching rate (%), Replicate 2 ([2]; listed as 1′-(S, R)): 26.98%
- Hatching rate (%), Replicate 3 ([2]; listed as 1′-(S, R)): 21.05%
- Number of unhatched larvae 4 days after insecticide delivery, Replicate 1 ([2]; listed as 1′-(S, R)): 44
- Number of unhatched larvae 4 days after insecticide delivery, Replicate 2 ([2]; listed as 1′-(S, R)): 46
- Number of unhatched larvae 4 days after insecticide delivery, Replicate 3 ([2]; listed as 1′-(S, R)): 45

SMILES: CC(COc1ccc(Cl)cc1Cl)OS(=O)OCCF [1′-(S,S)]
- Hatching rate (%) [1, 9]: 20.63%
- Hatching rate (%) [1, 10]: 16.22%
- Number of hatched larvae 5 days after insecticide delivery [1, 9]: 13
- Number of hatched larvae 5 days after insecticide delivery [1, 10]: 12
- inhibitory rate against Magnaporthe grisea (in words) (Magnaporthe grisea): strong inhibitory rate
- Average antifungal rate (%) (Magnaporthe grisea): 81.44%
- Antifungal rate of Magnaporthe grisea (%), Replicate 1 (Magnaporthe grisea): 84.82%
- Antifungal rate of Magnaporthe grisea (%), Replicate 2 (Magnaporthe grisea): 83.06%
- Antifungal rate of Magnaporthe grisea (%), Replicate 3 (Magnaporthe grisea): 76.44%
- Hatching rate (%), Replicate 1 (eggs of Panonychus citri; listed as 1′-(S, S)): 14.73%
- Hatching rate (%), Replicate 2 (eggs of Panonychus citri; listed as 1′-(S, S)): 16.05%
- Hatching rate (%), Replicate 3 (eggs of Panonychus citri; listed as 1′-(S, S)): 16.67%
- Number of hatched larvae 5 days after insecticide delivery, Replicate 1 (eggs of Panonychus citri; listed as 1′-(S, S)): 19
- Number of hatched larvae 5 days after insecticide delivery, Replicate 2 (eggs of Panonychus citri; listed as 1′-(S, S)): 13
- Number of hatched larvae 5 days after insecticide delivery, Replicate 3 (eggs of Panonychus citri; listed as 1′-(S, S)): 18
- Hatching rate (%) (eggs of Thrips; [9]): 14.10%
- Hatching rate (%) (eggs of Thrips; [10]): 14.63%
- Hatching rate (%) (eggs of Thrips; [11]): 16.04%
- Number of hatched larvae 5 days after insecticide delivery (eggs of Thrips; [9]): 11
- Number of hatched larvae 5 days after insecticide delivery (eggs of Thrips; [10]): 18
- Number of hatched larvae 5 days after insecticide delivery (eggs of Thrips; [11]): 17
- Hatching rate (%), Replicate 1 ([2]; listed as 1′-(S, S)): 64.52%
- Hatching rate (%), Replicate 2 ([2]; listed as 1′-(S, S)): 63.79%
- Hatching rate (%), Replicate 3 ([2]; listed as 1′-(S, S)): 66.07%
- Number of unhatched larvae 4 days after insecticide delivery, Replicate 1 ([2]; listed as 1′-(S, S)): 22
- Number of unhatched larvae 4 days after insecticide delivery, Replicate 2 ([2]; listed as 1′-(S, S)): 21
- Number of unhatched larvae 4 days after insecticide delivery, Replicate 3 ([2]; listed as 1′-(S, S)): 19
